SMILES strings stand for the structures. ≈ marks a conversion by molar mass, not a printed value.

24 compounds from ChEMBL document CHEMBL3098015, “Synthesis and evaluation of 1-cyclopropyl-6-fluoro-1,4-dihydro-4-oxo-7-(4-(2-(4-substitutedpiperazin-1-yl)acetyl)piperazin-1-yl)quinoline-3-carboxylic acid derivatives as anti-tubercular and antibacterial agents” (Eur J Med Chem, 2014) can be followed below.

The subject of data set [1] is Escherichia coli. Description: Antimicrobial activity against Escherichia coli ATCC 25922 after 24 hrs by broth microdilution method. It counts as functional. Conditions: ATCC 25922, 24 h. (Broth dilution looks for growth in wells or tubes with falling amounts of substance.)
Data set [2] relates to Staphylococcus aureus. Description: Antimicrobial activity against Staphylococcus aureus ATCC 29213 after 24 hrs by broth microdilution method. Type of data set: functional. Conditions: ATCC 29213, 24 h.
Data set [3] relates to Mycobacterium tuberculosis. Kind of data set: Antimicrobial activity against Mycobacterium tuberculosis H37Rv ATCC 27294 after 3 weeks by microbroth dilution method. Particulars: H37Rv ATCC 27294, 504 h. It counts as functional.
Data set [4] in a line: Cytotoxicity against mouse RAW264.7 cells at 50 uM after 72 hrs by MTT assay. Type of data set: cell-based. Conditions: read-out: INH. A general note: Formazan colour is commonly taken as a measure of viable cells.
For another data set, the system named is RAW264.7. Description: Cytotoxicity against mouse RAW264.7 cells after 72 hrs by MTT assay. It counts as cell-based. Conditions: RAW264.7, 72 h.
Data set [5] in a line: Selectivity index, ratio of IC50 for mouse RAW264.7 cells to MIC for Mycobacterium tuberculosis H37Rv ATCC 27294. Particulars: read-out: Selectivity Index. It counts as toxicity.
The nature of data set [6]: Inhibition of DNA gyrase (unknown origin) using relaxed pBR322 as substrate after 30 mins by agarose gel electrophoresis.
Data set [7] has as its system Escherichia coli. Description: Bactericidal activity against Escherichia coli ATCC 25922 assessed as 3 log reduction in inoculum size after 24 hrs by broth microdilution method relative to control. Type of data set: functional. Conditions: ATCC 25922, 24 h.
In data set [8] the test system is Staphylococcus aureus. Kind of data set: Bactericidal activity against Staphylococcus aureus ATCC 29213 assessed as 3 log reduction in inoculum size after 24 hrs by broth microdilution method relative to control. It counts as functional. Particulars: ATCC 29213, 24 h.

What is called MIC99 is an inhibitory concentration at the 99% level, which refers to growth in some studies and to a panel of isolates in others. Read a high MIC99 as weaker potency. For `O=C(O)c1cn(C2CC2)c2cc(N3CCN(C(=O)CN4CCN(C(c5ccc(F)cc5)c5ccc(F)cc5)CC4)CC3)c(F)cc2c1=O`, the MIC99 against Escherichia coli [1] is > 24.3 µM; against Staphylococcus aureus [2], 1.51 µM (≈ 0.996 µg/mL); in data set [3], > 97.2 µM.
As for `O=C(O)c1cn(C2CC2)c2cc(N3CCN(C(=O)CN4CCN(c5ccc(F)c(F)c5)CC4)CC3)c(F)cc2c1=O`, the figures for the MIC99 (with Escherichia coli [1]; in the data set with Staphylococcus aureus [2]; in [3]) were > 225 µM, > 225 µM and > 113 µM, respectively.
What is called IC50 is the point on the concentration scale where inhibition reaches its midpoint. Low values mean greater potency, high ones weaker potency. Take `O=C(O)c1cn(C2CC2)c2cc(N3CCN(C(=O)CN4CCN(C(c5ccccc5)c5ccccc5)CC4)CC3)c(F)cc2c1=O`: the cytotoxicity at 72 h, 50 µM in data set [4] came to 25.9%. Also, the MIC99 with Escherichia coli [1] is 12.8 µM (≈ 8.01 µg/mL); against Staphylococcus aureus [2], 0.8 µM (≈ 0.499 µg/mL); in data set [3], 25.7 µM (≈ 16 µg/mL). Further, the IC50 with RAW264.7 came to 96.6 µM. The selectivity ratio in data set [5] turned out to be 3.75.
Turning to `N#Cc1ccccc1N1CCN(CC(=O)N2CCN(c3cc4c(cc3F)c(=O)c(C(=O)O)cn4C3CC3)CC2)CC1`, the figures for the MIC99 (in the data set on Escherichia coli [1]; in the data set with Staphylococcus aureus [2]; in data set [3]) were 3.58 µM (≈ 2 µg/mL), 0.89 µM (≈ 0.497 µg/mL) and > 115 µM, respectively.
For `O=C(O)c1cn(C2CC2)c2cc(N3CCN(C(=O)CN4CCN(c5ccccn5)CC4)CC3)c(F)cc2c1=O`, the MIC99 was 3.75 µM (≈ 2 µg/mL) in the data set on Escherichia coli [1], 1.87 µM (≈ 1 µg/mL) in the data set on Staphylococcus aureus [2] and > 120 µM in data set [3].
Take `O=C(O)c1cn(C2CC2)c2cc(N3CCN(C(=O)CN4CCN(c5ncccn5)CC4)CC3)c(F)cc2c1=O`: the cytotoxicity at 72 h, 50 µM in data set [4] was found to be 11%. Further, the results for the MIC99 (against Escherichia coli [1]; in the data set with Staphylococcus aureus [2]; in [3]) were 3.74 µM (≈ 2 µg/mL), 1.87 µM (≈ 1 µg/mL) and 59.9 µM (≈ 32.1 µg/mL), respectively. The IC50 with RAW264.7 turned out to be 227 µM. For the same compound, the selectivity ratio in data set [5] turned out to be 3.79.
For the compound `COc1ccc(N2CCN(CC(=O)N3CCN(c4cc5c(cc4F)c(=O)c(C(=O)O)cn5C4CC4)CC3)CC2)cc1OC`, the MIC99 in the data set on Escherichia coli [1] was 6.75 µM (≈ 4.01 µg/mL); in the data set on Staphylococcus aureus [2], 1.68 µM (≈ 0.997 µg/mL); in data set [3], > 108 µM.
Regarding `O=C(O)c1cn(C2CC2)c2cc(N3CCN(C(=O)CN4CCN(c5cccc(O)c5)CC4)CC3)c(F)cc2c1=O`, the MIC99 against Escherichia coli [1] was 3.64 µM (≈ 2 µg/mL); with Staphylococcus aureus [2] it was 1.82 µM (≈ 1 µg/mL); in data set [3] it was > 117 µM.
For `CN(C)CCN1CCN(CC(=O)N2CCN(c3cc4c(cc3F)c(=O)c(C(=O)O)cn4C3CC3)CC2)CC1`, the MIC99 with Escherichia coli [1] amounted to 7.58 µM (≈ 4.01 µg/mL); with Staphylococcus aureus [2], 7.58 µM (≈ 4.01 µg/mL); in [3], 121 µM (≈ 64.2 µg/mL).
As to `O=C(O)c1cn(C2CC2)c2cc(N3CCN(C(=O)CN4CCN(c5cccc(C(F)(F)F)c5)CC4)CC3)c(F)cc2c1=O`, the MIC99 with Escherichia coli [1] was 6.66 µM (≈ 4.01 µg/mL); in the data set on Staphylococcus aureus [2] it was 0.83 µM (≈ 0.499 µg/mL); in [3], > 107 µM.
Take `CC(=O)N1CCN(CC(=O)N2CCN(c3cc4c(cc3F)c(=O)c(C(=O)O)cn4C3CC3)CC2)CC1`: in data set [4], the cytotoxicity at 72 h, 50 µM was found to be 16.2%. Further, the MIC99 against Escherichia coli [1] was found to be 16.1 µM (≈ 8.02 µg/mL); against Staphylococcus aureus [2] it was 4.01 µM (≈ 2 µg/mL); in data set [3], 16.1 µM (≈ 8.02 µg/mL). In addition, inhibition in the data set with RAW264.7 was half-maximal at 154 µM (IC50). Moreover, the selectivity ratio in data set [5] turned out to be 9.59.
Regarding `O=C(O)c1cn(C2CC2)c2cc(N3CCN(C(=O)CN4CCN(Cc5ccccc5)CC4)CC3)c(F)cc2c1=O`, the cytotoxicity at 72 h, 50 µM in data set [4] turned out to be 15.5%. The results for the MIC99 (in the data set on Escherichia coli [1]; against Staphylococcus aureus [2]; in [3]) were 1.83 µM (≈ 1 µg/mL), 1.83 µM (≈ 1 µg/mL) and 7.32 µM (≈ 4.01 µg/mL), respectively. In addition, the IC50 with RAW264.7 worked out at 161 µM; in [6], 7 µM. Moreover, the selectivity ratio in data set [5] stood at 22.
As a reminder, the MBC is the lowest tested concentration that kills the bacteria rather than only halting them. Take `O=C(O)c1cn(C2CC2)c2cc(N3CCN(C(=O)CN4CCN(c5ccccc5)CC4)CC3)c(F)cc2c1=O`: the MIC99 is 1.87 µM (≈ 0.998 µg/mL) in the data set with Escherichia coli [1], 0.93 µM (≈ 0.496 µg/mL) in the data set with Staphylococcus aureus [2] and > 120 µM in [3]. The minimal bactericidal concentration (MBC) in the data set on Escherichia coli [7] and in the data set with Staphylococcus aureus [8] was 7.51 µM (≈ 4.01 µg/mL) each time.
`O=C(O)c1cn(C2CC2)c2cc(N3CCN(C(=O)CN4CCN(c5ccccc5Cl)CC4)CC3)c(F)cc2c1=O`: in [4], the cytotoxicity at 72 h, 50 µM turned out to be 14.9%. Besides, the MIC99 in the data set with Escherichia coli [1] worked out at 0.88 µM (≈ 0.5 µg/mL); in the data set with Staphylococcus aureus [2], 0.44 µM (≈ 0.25 µg/mL); in data set [3], 28.2 µM (≈ 16 µg/mL). In addition, the MBC in the data set on Escherichia coli [7] was 7.06 µM (≈ 4.01 µg/mL); with Staphylococcus aureus [8], 0.88 µM (≈ 0.5 µg/mL). It took 167 µM to reach half-maximal inhibition in the data set with RAW264.7 (IC50). In addition, the selectivity ratio in data set [5] turned out to be 5.92.
`N#Cc1ccc(N2CCN(CC(=O)N3CCN(c4cc5c(cc4F)c(=O)c(C(=O)O)cn5C4CC4)CC3)CC2)cc1`: the MIC99 was 7.17 µM (≈ 4.01 µg/mL) in the data set on Escherichia coli [1], 7.17 µM (≈ 4.01 µg/mL) in the data set with Staphylococcus aureus [2] and > 115 µM in [3].
Take `O=C(O)c1cn(C2CC2)c2cc(N3CCN(C(=O)CN4CCN(c5ccc([N+](=O)[O-])cc5)CC4)CC3)c(F)cc2c1=O`: the MIC99 in the data set on Escherichia coli [1] is 13.8 µM (≈ 8.01 µg/mL); in the data set on Staphylococcus aureus [2], 6.92 µM (≈ 4 µg/mL); in data set [3], > 111 µM.
As for `COc1cccc(N2CCN(CC(=O)N3CCN(c4cc5c(cc4F)c(=O)c(C(=O)O)cn5C4CC4)CC3)CC2)c1`, the figures for the MIC99 (against Escherichia coli [1]; in the data set on Staphylococcus aureus [2]; in data set [3]) were 3.55 µM (≈ 2 µg/mL), 0.88 µM (≈ 0.496 µg/mL) and > 114 µM, respectively.
For `Cc1cccc(N2CCN(CC(=O)N3CCN(c4cc5c(cc4F)c(=O)c(C(=O)O)cn5C4CC4)CC3)CC2)c1`, in data set [4], the cytotoxicity at 72 h, 50 µM stood at 16.2%. Further, the MIC99 against Escherichia coli [1] worked out at 7.32 µM (≈ 4.01 µg/mL); against Staphylococcus aureus [2], 1.83 µM (≈ 1 µg/mL); in data set [3], 29.3 µM (≈ 16 µg/mL). Moreover, in the data set with RAW264.7, the IC50 worked out at 154 µM. In addition, the selectivity ratio in data set [5] was determined as 5.26.
Turning to `CC(c1ccccc1)N1CCN(CC(=O)N2CCN(c3cc4c(cc3F)c(=O)c(C(=O)O)cn4C3CC3)CC2)CC1` (stereo not drawn), in data set [4], the cytotoxicity at 72 h, 50 µM was 16.9%. Also, the MIC99 with Escherichia coli [1] came to 3.56 µM (≈ 2 µg/mL); with Staphylococcus aureus [2] it was 1.78 µM (≈ 1 µg/mL); in data set [3], 28.6 µM (≈ 16 µg/mL). Also, half-maximal inhibition in the data set with RAW264.7 (IC50) required 148 µM. The selectivity ratio in data set [5] came out at 5.17.
For `CCN1CCN(CC(=O)N2CCN(c3cc4c(cc3F)c(=O)c(C(=O)O)cn4C3CC3)CC2)CC1`, the cytotoxicity at 72 h, 50 µM in data set [4] was 13.3%. Further, the MIC99 amounted to 16.5 µM (≈ 8.02 µg/mL) against Escherichia coli [1], 16.5 µM (≈ 8.02 µg/mL) in the data set with Staphylococcus aureus [2] and 33 µM (≈ 16 µg/mL) in [3]. This compound also displayed an IC50 in the data set on RAW264.7 of 188 µM. Moreover, in [5], the selectivity ratio amounted to 5.68.
Take `CN1CCN(CC(=O)N2CCN(c3cc4c(cc3F)c(=O)c(C(=O)O)cn4C3CC3)CC2)CC1`: the MIC99 stood at 34 µM (≈ 16 µg/mL) in the data set with Escherichia coli [1], 34 µM (≈ 16 µg/mL) in the data set with Staphylococcus aureus [2] and 136 µM (≈ 64.2 µg/mL) in data set [3].
For `O=C(O)c1cn(C2CC2)c2cc(N3CCN(C(=O)CN4CCN(c5ccc(Cl)cc5)CC4)CC3)c(F)cc2c1=O`, the results for the MIC99 (in the data set with Escherichia coli [1]; against Staphylococcus aureus [2]; in [3]) were 7.06 µM (≈ 4.01 µg/mL), 1.76 µM (≈ 1 µg/mL) and 113 µM (≈ 64.2 µg/mL), respectively.
Turning to `O=C(O)c1cn(C2CC2)c2cc(N3CCNCC3)c(F)cc2c1=O` [CIPROFLOXACIN], the MIC99 came out at 0.021 µM (≈ 0.00696 µg/mL) in the data set on Escherichia coli [1] and 0.37 µM (≈ 0.123 µg/mL) against Staphylococcus aureus [2].
`CO[C@H]1/C=C/O[C@@]2(C)Oc3c(C)c(O)c4c(O)c(c(/C=N/N5CCN(C)CC5)c(O)c4c3C2=O)NC(=O)/C(C)=C\C=C\[C@H](C)[C@H](O)[C@@H](C)[C@@H](O)[C@@H](C)[C@H](OC(C)=O)[C@@H]1C` [RIFAMPIN] gave an MIC99 in [3] of 0.14 µM (≈ 0.115 µg/mL).
